The text below walks through data of PMC7046148 (Scientific Reports, 2020).

One may read the IC50 as the midpoint of a concentration-inhibition curve.

The subject of assay [1] is XCL-1 hiPSC CRBN Mock. The assay is described as follows: LPM differentiation assay (FOXF1 high content imaging), XCL-1 CRBN Mock clone. It is filed as cell-based. As to conditions: Homo sapiens, 48 h, % FOXF1+ cells after 2 d in APEL2+GSKi, read-out: IC50 (±SEM) in LPM differentiation assay.
Description: On the day after seeding, the medium was replaced with 100 µL/well of mTeSR-1 (control) or APEL2 + GSKi containing either DMSO or diluted compounds (for a final DMSO concentration of 0.2%). The same conditions were replenished the following day for a total of 2 d of differentiation, and the following day (3 d after seeding), the medium was aspirated, and hiPSCs were fixed in 10% NBF for 15 min at room temperature.
(§8) Immunofluorescence staining was carried out by fixing/permeabilizing cells overnight in blocking buffer containing 3% BSA (Sigma) in DPBS-T, which contains DPBS + Ca^2+//Mg^2+ with 0.3% Triton-X100 (Sigma). Fixed and permeabilized cells were incubated in primary antibodies diluted (as noted in Table 1) in antibody buffer, consisting of 1% BSA in DPBS-T, overnight at 4 °C.
(§9) Cells were washed in blocking buffer for >6 hours at 4 °C and subsequently incubated in secondary antibody diluted in antibody buffer overnight at 4 °C. Secondary antibodies were washed out in antibody buffer for >4 h at 4 °C, and hiPSCs were counterstained with DAPI (Fisher) at 10 µg/mL in DPBS-T for 2 h. hiPSCs were washed in DPBS-T for >2 h at 4 °C, and immediately before imaging, the DPBS-T was replaced with DPBS. […] Chemical dose-response experiments and experiments examining the time-course of marker expression during LPM differentiation were imaged at 10X magnification using the Cellomics ArrayScan or CellInsight Cx7 LZR High Content Screening Platform and HCS Studio Cell Analysis Software (Thermo Fisher). An artificial threshold was uniformly applied to all images to generate the percentage of DAPI+ nuclei that stained positively for FOXF1 or NANOG. Thresholding for FOXF1 and T was performed relative to undiffer-entiated hiPSCs, and thresholding for SALL4 and OCT4 was performed relative to a non-expressing cell type (human primary endothelial cells). Settings for image acquisition and processing were uniformly applied between XCL-1 clones. […] Experiments were repeated in quadruplicate unless otherwise stated, and data are presented as mean ± SEM. Nonlinear regression analysis was performed using the 4-parameter [inhibitor]-vs-response curve fitting algorithm in Prism (GraphPad).
The subject of assay [2] is XCL-1 hiPSC CRBN KO/KI. The assay is described as follows: LPM differentiation assay (FOXF1 high content imaging), XCL-1 CRBN KO/KI clone. Format: cell-based, human. As to conditions: for IC50: Homo sapiens, 48 h, XCL-1 CRBN KO/KI, % FOXF1+ cells after 2 d in APEL2+GSKi, read-out: IC50 (±SEM) in LPM differentiation assay.
Description: On the day after seeding, the medium was replaced with 100 µL/well of mTeSR-1 (control) or APEL2 + GSKi containing either DMSO or diluted compounds (for a final DMSO concentration of 0.2%). The same conditions were replenished the following day for a total of 2 d of differentiation, and the following day (3 d after seeding), the medium was aspirated, and hiPSCs were fixed in 10% NBF for 15 min at room temperature. For time-course experiments, cells were fixed at the specified intervals after the start of LPM differentiation.
as §8
Cells were washed in blocking buffer for >6 hours at 4 °C and subsequently incubated in secondary antibody diluted in antibody buffer overnight at 4 °C. Secondary antibodies were washed out in antibody buffer for >4 h at 4 °C, and hiPSCs were counterstained with DAPI (Fisher) at 10 µg/mL in DPBS-T for 2 h. hiPSCs were washed in DPBS-T for >2 h at 4 °C, and immediately before imaging, the DPBS-T was replaced with DPBS. Initial characterization of LPM differentiation by immunofluorescence was carried out using the A1R confocal microscope (Nikon) equipped with 10X objective, and automated object analysis was carried out using NIS Elements v5 software (Nikon). Chemical dose-response experiments and experiments examining the time-course of marker expression during LPM differentiation were imaged at 10X magnification using the Cellomics ArrayScan or CellInsight Cx7 LZR High Content Screening Platform and HCS Studio Cell Analysis Software (Thermo Fisher). An artificial threshold was uniformly applied to all images to generate the percentage of DAPI+ nuclei that stained positively for FOXF1 or NANOG. Thresholding for FOXF1 and T was performed relative to undiffer-entiated hiPSCs, and thresholding for SALL4 and OCT4 was performed relative to a non-expressing cell type (human primary endothelial cells). Settings for image acquisition and processing were uniformly applied between XCL-1 clones. The capacity of all XCL-1 clones and Gibco hiPSCs to undergo LPM differentiation in the high content format was assessed by FOXF1 and NANOG immunostaining. […] Experiments were repeated in quadruplicate unless otherwise stated, and data are presented as mean ± SEM. Nonlinear regression analysis was performed using the 4-parameter [inhibitor]-vs-response curve fitting algorithm in Prism (GraphPad).
Using CRISPR/Cas9-mediated gene editing, both CRBN alleles were knocked out in XCL-1 hiPSCs cells, followed by the insertion at the AAVS1 locus of a transgene encoding human CRBN with E377V and V388I mutations (clone hereafter referred to as CRBN KO/KI).
In assay [3] the test system is XCL-1 hiPSC CRBN KO/KI. In words: cells. It is filed as cell-based. Conditions: Homo sapiens, 72 h; XCL-1 CRBN KO/KI; 3 d differentiation; read-out: IC50 (±SEM) in SOX17 differentiation assay. As to the method:
(§1) The assay was carried out as previously described with continuous dosing of chemical for 3 total days of differentiation. SOX17 staining and DAPI counter-staining were carried out as described, and assays were imaged via high content imaging. […]
(§2) Supplementary Figure 7. Dose-response characterization of the influence […]
(§3) of XCL-1 clones. High content imaging analysis of XCL-1 hiPSC clones that were differentiated for 3 days in the presence of compound and subsequently stained for SOX17 and counter-stained with DAPI. Untreated DMSO control is omitted. Data represent the mean +/- SEM %SOX17 cells
(§4) (relative to control) from 4 independent experiments. Nonlinear regression […]
(§5) variable slope plotting tool in GraphPad Prism. A-C: Dose-response […]
(§6) in cereblon mock (hollow circles) or CRBN KO/KI (red filled circles) clones. D- […]

Assay [4] relates to XCL-1 hiPSC CRBN Mock. In words: cells. Conditions: Homo sapiens, 72 h; XCL-1 CRBN Mock; 3 d differentiation; read-out: IC50 (±SEM) in SOX17 differentiation assay. Format: cell-based. As to the method:
as §1, §2, §3, §4, §5, §6

Assay [5] has as its system XCL-1 hiPSC SALL4 Mock. The assay is described as follows: cells. It is filed as cell-based. As to conditions: Homo sapiens, 72 h; XCL-1 SALL4 Mock; 3 d differentiation; read-out: IC50 (±SEM) in SOX17 differentiation assay. As to the method:
as §1, §2, §3, §4, §5, §6

Assay [6] relates to XCL-1 hiPSC SALL4^G416A. The assay is described as follows: cells. It is filed as cell-based. As to conditions: Homo sapiens, 72 h; XCL-1 SALL4^G416A; 3 d differentiation; read-out: IC50 (±SEM) in SOX17 differentiation assay. As to the method:
as §1, §2, §3, §4, §5, §6

Assay [7] addresses T1, SALL4 (Homo sapiens, UniProt Q96SW2+Q9UJQ4).
T1 construct: Unmodified Gibco hiPSCs were either differentiated in APEL2 + GSKi or maintained in mTeSR1, and SALL4 nuclear protein expression was monitored; endogenous in cells; host or cells: Gibco hiPSCs; XCL-1 SALL4 mock hiPSC clone
The assay is described as follows: SALL4 nuclear protein expression (MFI) by high content imaging, Gibco hiPSCs. Format: cell-based. The text has this: (§7) High content imaging analysis of SALL4 immunofluorescence with DAPI counterstaining in hiPSCs. […] Data represent the mean +/− SEM from 2 independent experiments.

For assay [8], the target named is T1, SALL4. The assay is described as follows: SALL4 MFI by high content imaging, XCL-1 SALL4 mock hiPSCs. Format: cell-based. Conditions: SALL4 mock control hiPSCs, 8 h of treatment.
Source text: as §7

Assay [9] deals with T2, SALL4^G416A (Homo sapiens, UniProt Q9UJQ4, G416A).
T2 construct: parental hiPSCs were engineered to express a homozygous G416A mutation in the endogenous SALL4 locus; endogenous in cells; host or cells: XCL-1 SALL4^G416A hiPSC clone (1E6), CRISPR/Cas9 knock-in at the endogenous locus
T2 sequence (Q96SW2 whole entry partner): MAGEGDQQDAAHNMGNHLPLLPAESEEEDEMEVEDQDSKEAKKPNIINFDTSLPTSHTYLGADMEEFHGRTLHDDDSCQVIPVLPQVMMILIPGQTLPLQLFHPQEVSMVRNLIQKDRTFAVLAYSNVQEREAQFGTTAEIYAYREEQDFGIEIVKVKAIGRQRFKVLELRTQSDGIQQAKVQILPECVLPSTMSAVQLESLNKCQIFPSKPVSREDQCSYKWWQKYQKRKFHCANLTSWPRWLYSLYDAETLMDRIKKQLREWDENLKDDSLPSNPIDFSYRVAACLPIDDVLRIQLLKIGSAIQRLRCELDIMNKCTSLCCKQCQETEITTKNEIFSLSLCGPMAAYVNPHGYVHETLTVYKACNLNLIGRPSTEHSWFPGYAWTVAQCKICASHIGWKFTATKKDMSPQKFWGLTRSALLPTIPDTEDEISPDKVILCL
T2 sequence (Q16531 whole entry partner): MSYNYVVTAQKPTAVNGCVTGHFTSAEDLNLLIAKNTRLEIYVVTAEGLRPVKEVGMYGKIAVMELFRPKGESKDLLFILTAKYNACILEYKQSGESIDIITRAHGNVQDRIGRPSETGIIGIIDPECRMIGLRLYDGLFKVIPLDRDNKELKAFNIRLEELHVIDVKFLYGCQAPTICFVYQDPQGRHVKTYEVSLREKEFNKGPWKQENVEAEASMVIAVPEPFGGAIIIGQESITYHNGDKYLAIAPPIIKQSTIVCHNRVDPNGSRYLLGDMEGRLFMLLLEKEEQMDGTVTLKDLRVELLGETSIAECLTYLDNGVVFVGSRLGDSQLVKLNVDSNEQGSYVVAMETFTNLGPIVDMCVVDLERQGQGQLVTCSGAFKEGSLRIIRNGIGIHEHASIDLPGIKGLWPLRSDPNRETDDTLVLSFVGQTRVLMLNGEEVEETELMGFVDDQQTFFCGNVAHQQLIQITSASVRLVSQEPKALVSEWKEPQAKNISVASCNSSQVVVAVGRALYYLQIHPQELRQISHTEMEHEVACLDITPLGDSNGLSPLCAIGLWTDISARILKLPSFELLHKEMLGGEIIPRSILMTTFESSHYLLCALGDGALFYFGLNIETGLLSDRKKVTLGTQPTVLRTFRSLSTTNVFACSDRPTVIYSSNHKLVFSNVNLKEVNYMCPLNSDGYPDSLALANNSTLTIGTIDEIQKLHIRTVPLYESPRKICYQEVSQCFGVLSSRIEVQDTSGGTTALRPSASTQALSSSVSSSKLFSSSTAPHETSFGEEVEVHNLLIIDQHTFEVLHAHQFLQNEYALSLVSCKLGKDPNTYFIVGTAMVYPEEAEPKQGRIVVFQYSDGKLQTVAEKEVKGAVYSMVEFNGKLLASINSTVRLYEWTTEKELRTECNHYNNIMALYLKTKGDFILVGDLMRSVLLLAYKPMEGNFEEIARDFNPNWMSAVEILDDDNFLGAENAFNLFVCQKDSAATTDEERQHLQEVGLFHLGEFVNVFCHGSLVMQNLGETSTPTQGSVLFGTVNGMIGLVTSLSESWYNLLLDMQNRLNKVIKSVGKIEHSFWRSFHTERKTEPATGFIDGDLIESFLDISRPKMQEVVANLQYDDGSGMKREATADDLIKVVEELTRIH
T2 sequence (Q9UJQ4 whole entry G416A): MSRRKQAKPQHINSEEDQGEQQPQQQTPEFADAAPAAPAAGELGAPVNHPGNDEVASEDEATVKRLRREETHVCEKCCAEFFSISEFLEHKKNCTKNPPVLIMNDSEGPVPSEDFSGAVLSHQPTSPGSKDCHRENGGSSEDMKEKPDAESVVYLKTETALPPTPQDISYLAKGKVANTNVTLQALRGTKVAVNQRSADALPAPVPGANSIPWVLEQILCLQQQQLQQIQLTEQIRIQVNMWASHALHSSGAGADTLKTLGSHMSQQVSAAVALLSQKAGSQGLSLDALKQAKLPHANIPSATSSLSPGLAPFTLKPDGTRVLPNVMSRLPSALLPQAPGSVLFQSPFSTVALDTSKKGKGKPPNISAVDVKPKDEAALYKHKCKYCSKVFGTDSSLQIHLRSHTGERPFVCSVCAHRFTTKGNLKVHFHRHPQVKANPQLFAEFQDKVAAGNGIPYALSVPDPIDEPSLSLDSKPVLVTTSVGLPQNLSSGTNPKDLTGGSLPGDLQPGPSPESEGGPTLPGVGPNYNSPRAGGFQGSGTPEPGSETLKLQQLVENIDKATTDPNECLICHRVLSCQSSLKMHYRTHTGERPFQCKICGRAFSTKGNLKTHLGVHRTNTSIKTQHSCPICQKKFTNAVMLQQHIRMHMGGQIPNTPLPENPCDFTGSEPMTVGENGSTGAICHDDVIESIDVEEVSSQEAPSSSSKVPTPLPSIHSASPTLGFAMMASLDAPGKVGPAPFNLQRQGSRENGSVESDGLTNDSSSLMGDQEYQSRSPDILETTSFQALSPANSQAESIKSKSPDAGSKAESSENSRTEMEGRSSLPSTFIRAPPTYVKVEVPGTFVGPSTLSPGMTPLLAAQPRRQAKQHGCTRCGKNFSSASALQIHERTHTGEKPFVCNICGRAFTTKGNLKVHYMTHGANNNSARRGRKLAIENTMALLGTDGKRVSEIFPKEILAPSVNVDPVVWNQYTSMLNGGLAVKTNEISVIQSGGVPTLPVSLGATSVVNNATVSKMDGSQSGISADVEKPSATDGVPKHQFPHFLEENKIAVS
In words: SALL4 MFI by high content imaging, XCL-1 SALL4^G416A hiPSCs. Format: cell-based. As to conditions: SALL4^G416A hiPSC clone, 8 h of treatment.
Source text: as §7

Assay [10] concerns the target T3, human SALL4 (Homo sapiens, UniProt Q9UJQ4).
T3 construct: expressed in transfected cells; host or cells: Lenti-x 293 CRBN CRISPR KO (CRBN-/-) cells stably expressing human SALL4, transiently transfected with FLAG-CRBN variants
In words: Immunoblot of SALL4 degradation in Lenti-x 293 CRBN-/- cells expressing human CRBN variants. Format: cell-based. In general terms: Immunoblotting shows a protein as a band on a membrane.
Source text: SALL4 were transiently transfected with vectors expressing GFP or human CRBN variants and treated with
CRBN-/- cells transfected with empty vector were used as a negative control. The cells were then lysed and
characterized by immunoblotting analysis for SALL4, ZFP91, GFP, CRBN, and β-actin.
CRBN CRISPR KO (CRBN -/-) cells were maintained in Dulbecco’s Modified Eagle’s medium (DMEM;
Invitrogen) supplemented with 10% fetal bovine serum (FBS; Invitrogen). All cell lines were confirmed
mycoplasma-negative using the MycoAlert Mycoplasma Detection Kit (Lonza).
CRBN-/- cells stably expressing human SALL4 was transiently transfected with 4 µg of pcDNA3-GFP, pcDNA3-
FLAG-CRBN WT (isoform 1),pcDNA3-FLAG-CRBN E377V (isoform 1) or pcDNA3-FLAG-CRBN V388I (isoform
Cells were then harvested and lysed, and
whole cell extract was subjected to immunoblotting analysis. Cells were washed with ice-cold 1X PBS and
lysed in 50mM Tris-HCl [pH 7.6], 150 mM NaCl, 1% Triton X-100, and 1x Complete ULTRA protease inhibitor
cocktail and PhosSTOP phosphatase inhibitor cocktail. Whole cell extracts were collected after
centrifugation at top speed for 10 minutes, resolved by sodium dodecyl sulfate polyacrylamide gel
electrophoresis, transferred onto a nitrocellulose membrane using the Turboblot system (Bio-Rad), and
probed with the indicated primary antibodies. Bound antibodies were detected with IRDye®-680 or -800 […]

Assay [11] relates to Gibco hiPSCs. In words: LPM differentiation assay (FOXF1 high content imaging), Gibco hiPSCs. As to conditions: Homo sapiens, 48 h, read-out: IC50 (±SEM) in LPM differentiation assay.
Description: (§10) hiPSCs (Gibco or XCL-1 clones) were grown in mTeSR-1 on Matrigel, passaged into small clumps with Versene (4.5 min under normal culture conditions), counted as a single-cell suspension as described above, and seeded as small clumps at approximately 10,000 cells/well (30,000 cells/cm^2, ~15% confluence) in 100 µL mTeSR1 on Matrigel-coated µClear® 96-well plates (Greiner) for 1 d under normal culture conditions. On the day after seeding, the medium was replaced with 100 µL/well of mTeSR-1 (control) or APEL2 + GSKi containing either DMSO or diluted compounds (for a final DMSO concentration of 0.2%). The same conditions were replenished the following day for a total of 2 d of differentiation, and the following day (3 d after seeding), the medium was aspirated, and hiPSCs were fixed in 10% NBF for 15 min at room temperature.
as §8, §9
For assay [12], the system named is XCL-1 hiPSC SALL4 Mock. The assay is described as follows: LPM differentiation assay (FOXF1 high content imaging), XCL-1 SALL4 Mock clone. As to conditions: Homo sapiens, 48 h, read-out: IC50 (±SEM) in LPM differentiation assay.
Description: as §10, §8, §9
The test system of assay [13] is XCL-1 hiPSC SALL4^G416A. In words: LPM differentiation assay (FOXF1 high content imaging), XCL-1 SALL4^G416A clone. Conditions: for IC50: Homo sapiens, 48 h, read-out: IC50 (±SEM) in LPM differentiation assay.
Description: as §10, §8, §9
In addition, XCL-1 hiPSCs were engineered with CRISPR/Cas9 to express a homozygous SALL4 G416A mutation (hereafter referred to as the SALL4^G416A clone), and the homozygous SALL4 G416A mutation was confirmed by next-generation sequencing (Supplementary Fig. 2).

T1 sequence (Q9UJQ4 whole entry): as the sequence (Q9UJQ4 whole entry G416A) above, with A416G counted along it
T1 sequence (Q96SW2 whole entry): as the sequence (Q96SW2 whole entry partner) above
T1 sequence (Q16531 whole entry partner): as the sequence (Q16531 whole entry partner) above
T3 sequence (Q96SW2 whole entry partner): as the sequence (Q96SW2 whole entry partner) above
T3 sequence (Q16531 whole entry partner): as the sequence (Q16531 whole entry partner) above
T3 sequence (Q9UJQ4 whole entry): as the sequence (Q9UJQ4 whole entry G416A) above, with A416G counted along it

`Nc1cccc2c1C(=O)N(C1CCC(=O)NC1=O)C2=O` (stereo not shown) [Pomalidomide, pomalidomide]: the IC50 in [1] is 20 ± 10 nM; in assay [2], greater than 50000 nM; in assay [3] it was greater than 50000 nM; in assay [4], 20 ± 20 nM; in assay [5], 10 ± 10 nM; in assay [6], greater than 50000 nM. Moreover, the half-inhibitory concentration (IC50) is 10 ± 10 nM in [11], 90 ± 90 nM in assay [12] and greater than 50000 nM in assay [13]. Also, in [2] (50 µM, CRBN KO/KI clone), the “inhibition of LPM differentiation at the highest concentration tested” value was “inhibited LPM differentiation albeit not to the same magnitude as control hiPSCs”. In addition, the “time-course of SALL4 MFI” value in assay [7] (20 µM, Gibco hiPSCs in mTeSR1 or APEL2+GSKi, 2, 8 and 24 h after dosing) is listed as “rapid decline in SALL4 MFI 2 h after dosing”. Moreover, in assay [7] (Gibco hiPSCs, 8 h of treatment, dose-response), the “magnitude of the decrease in SALL4 MFI” value was ~ 55%. Also, the “effect on SALL4 MFI” value in [8] is reported as “potently reduced SALL4 MFI”; in assay [9] it was “unchanged”. In addition, the “SALL4 degradation in human cells expressing CRBN with the V388I mutation” value in assay [10] was “failed to induce SALL4 degradation”. In assay [13] (SALL4^G416A clone), the “inhibition of LPM differentiation at the two highest concentrations tested” value is on record as “modest inhibition of LPM differentiation”.

As for `NC(=O)c1ccc(-c2nc(-c3ccc4c(c3)OCO4)c(-c3ccccn3)[nH]2)cc1` [SB431542], the IC50 in [1] was found to be 650 ± 180 nM; in assay [2], 790 ± 400 nM; in [11] it was 2760 ± 5580 nM; in assay [12], 630 ± 170 nM; in assay [13] it was 510 ± 100 nM.

As to `Nc1cccc2c1CN(C1CCC(=O)NC1=O)C2=O` (stereo not shown) [Lenalidomide, lenalidomide], in [11], the IC50 came out at 160 ± 80 nM.
